Experimental findings from patent US8183264B2, “Pyridine derivative substituted by heteroaryl ring, and antifungal agent comprising the same” (Eisai R&D Managment Co., Ltd., priority 2006, dated 2012) are described below.

Test [1] has as its system A. fumigatus Tsukuba strain. Description: Anti-Aspergillus activity (MIC measurement). To be noted: minimum inhibitory concentration (MIC) by visual inspection, RPMI 1640, 42 to 48 hours at 35° C. It is filed as cell-based. How it is done: (§1) 1. Anti-Candida Activity and Anti-Aspergillus Activity
(§2) (1) Preparation of Fungal Sample
(§3) For the C. albicans CAF2-1 strain, a fungal suspension from a standing culture for 48 hours at 30° C. in a Sabouraud dextrose liquid culture medium (SDB) was diluted with RPMI 1640 medium to adjust a fungal suspension of 1.2×10^3 cells/mL. For the A. fumigatus Tsukuba strain, −80° C. stored strain was diluted with RPMI 1640 medium to adjust to a fungal suspension of 4.5×10^3 cells/mL.
(§4) (2) Preparation of an Agent Dilution Plate
(§5) Using a U-bottomed 96-well plate, 8 samples/plate (A to H) of sample dilution solutions were prepared. On the 2nd to 12th rows were dispensed 10 μL of dimethyl sulfoxide solution. Weighed sample was dissolved in dimethyl sulfoxide to prepare a 2.5 mg/mL solution, 20 μL of this solution was added to the first row of the prepared plate, and 12 steps of two-fold step dilutions (10 μL of solution+10 μL of dimethyl sulfoxide solution) were performed on the plate. This sample dilution solution was dispensed in an amount of 1 μL into a flat-bottomed 96-well plate for MIC measurement to prepare a sample dilution plate.
(§6) (3) Inoculation of Fungal Suspension and Culture
(§7) The fungal suspension prepared in (1) was used in an amount of 99 μL/well to inoculate the flat-bottomed 96-well plate containing 1 μL/well of the test compound dilution prepared in (2), and standing culture was performed aerobically for 42 to 48 hours at 35° C.
(§8) The following representative compounds prepared in the examples were measured for anti-Candida activity and anti-Aspergillus activity by measurement method in (1).

The subject of test [2] is C. albicans E81022 strain. The experiment in a line: Experimental systemic candidal infection model in mice. The class given is in vivo. As to conditions: peroral, 3 times every 4 hours, female ICR mice infected iv with C. albicans E81022, observed until 14 days after infection. How it is done:
2. Experimental Systemic Candidal Infection Model in Mice (1) Preparation of Fungal Inoculant
A standing culture of C. albicans E81022 strain was carried out for 48 hours at 30° C. in Sabouraud dextrose agar medium (SDA), and the recovered fungal cells were suspended in sterilized physiological saline. By counting the fungal number on cytometry plate, the suspension was diluted to 2×10^7 cells/mL with sterilized physiological saline to serve fungal inoculum.
The fungal inoculum was used in amounts of 0.2 mL to inoculate 4.5 to 5.5 week-old female ICR mice in the tail vein (4×10^6 cells/mouse).
From 0.5 to 1 hour after fungal inoculation, 0.2 mL of agent solution (dissolved or suspended in sterilized physiological saline containing 6.5% dimethyl sulfoxide and 3.5% Tween 80) was administered into the stomach using a peroral probe, 3 times every 4 hours. The agent concentration was 2.5 or 10 mg/kg, and the number of animal in one group was five animals.
(4) Determination of Effects
The protective effect was determined by observing life/death until 14 days after infection and calculating the mean survival days.

Test [3] concerns C. albicans CAF2-1 strain. Description: Anti-Candida activity (MIC measurement). It is filed as cell-based. As to conditions: CAF21STRAIN, minimum inhibitory concentration (MIC) by visual inspection, RPMI 1640, 42 to 48 hours at 35° C. How it is done:
as §1, §2, §3, §4, §5, §6, §7, §8

Converted amounts (≈) assume the structure as drawn. Some results are limits rather than exact numbers.

With `Nc1ncccc1-c1nnn(Cc2ccc(OCc3ccccc3)cc2)n1` [Example 5, 3-(2-(4-Benzyloxy-benzyl)-2H-tetrazol-5-yl)-pyridin-2-ylamine], the MIC (commonly the lowest concentration that inhibits growth of the organism) came to 1.56 µg/mL (≈ 4.35 µM) in test [1] and 0.78 µg/mL (≈ 2.18 µM) in test [3]. Moreover, in test [2] (Dose 10 mg/kg), the “Mean Survival Day (MSD)” value worked out at 11.8 days.
In the case of `Nc1ncccc1-c1nnc(Cc2ccc(OCc3ccccc3)cc2)o1` [Example 9], the figures for the minimal inhibitory concentration (MIC) in test [1] and in test [3] were 0.78 µg/mL (≈ 2.18 µM) and 0.39 µg/mL (≈ 1.09 µM), respectively. For the same compound, the results for the “Mean Survival Day (MSD)” value in test [2] (Dose 2.5 mg/kg) and in test [2] (Dose 10 mg/kg) were 7.8 days and 10.8 days, respectively.
The corresponding values for `Nc1ccc(-c2nnn(Cc3ccc(OCc4ccccn4)cc3)n2)c(N)n1` [Example 27, 3-(2-(4-(Pyridin-2-ylmethoxy)-benzyl)-2H-tetrazol-5-yl)-pyridin-2,6-diamine] are 0.78 µg/mL (≈ 2.08 µM), 0.2 µg/mL (≈ 0.534 µM), 5.6 days and 12 days.
As to `CCCCOCc1ccc(Cn2cc(-c3ccc(COC)nc3N)nn2)cc1` [Example 41, 3-[1-(4-Butoxymethyl-benzyl)-1H-[1,2,3]triazol-4-yl]-6-methoxymethyl-pyridin-2-ylamine], the minimum inhibitory concentration (MIC) in test [1] worked out at 1.56 µg/mL (≈ 4.09 µM); in test [3] it was 0.39 µg/mL (≈ 1.02 µM). Besides, the figures for the “Mean Survival Day (MSD)” value in test [2] (Dose 2.5 mg/kg) and in test [2] (Dose 10 mg/kg) were 6.2 days and 11.2 days, respectively.
With `CCCCOCc1ccc(Cn2cc(-c3ccc(N)nc3N)nn2)cc1` [Example 42, 3-(1-(4-Butoxymethyl-benzyl)-1H-[1,2,3]triazol-4-yl)-pyridin-2,6-diamine], the MIC in test [1] was determined as 0.78 µg/mL (≈ 2.21 µM); in test [3] it was 0.2 µg/mL (≈ 0.567 µM). Besides, in test [2] (Dose 10 mg/kg), the “Mean Survival Day (MSD)” value was 13.6 days.
As to `Nc1ncccc1-c1nnn(Cc2ccc(Oc3ccccc3)s2)n1` [Example 46, 3-(2-(5-Phenoxy-thiophen-2-ylmethyl)-2H-tetrazol-5-yl)-pyridin-2-ylamine], the figures for the MIC in test [1] and in test [3] were 1.56 µg/mL (≈ 4.45 µM) and 0.39 µg/mL (≈ 1.11 µM), respectively.
On the same counts, the results for `Nc1ncccc1-c1nnn(Cc2ccc(OCc3ccccc3)s2)n1` [Example 48, 3-(2-(5-Benzyloxy-thiophen-2-ylmethyl)-2H-tetrazol-5-yl)-pyridin-2-ylamine] are 1.56 µg/mL (≈ 4.28 µM) and 0.39 µg/mL (≈ 1.07 µM).
On the same counts, the results for `Nc1ncccc1-c1nnn(Cc2ccccc2)n1` [Example 49, 3-(2-Benzyl-2H-tetrazol-5-yl)-pyridin-2-ylamine] are 12.5 µg/mL (≈ 49.5 µM) and 1.56 µg/mL (≈ 6.18 µM).
On the same counts, the results for `CCOc1ccc(Cn2nnc(-c3cccnc3N)n2)cc1` [Example 50, 3-(2-(4-Ethoxy-benzyl)-2H-tetrazol-5-yl)-pyridin-2-ylamine] are over 25 µg/mL and 6.25 µg/mL (≈ 21.1 µM).
As to `Nc1ncccc1-c1nnn(Cc2ccc(Oc3ccc(F)cc3)o2)n1` [Example 51, 3-(2-(5-(4-Fluoro-phenoxy)-furan-2-ylmethyl)-2H-tetrazol-5-yl)-pyridin-2-ylamine], the MIC in test [1] stood at 3.13 µg/mL (≈ 8.88 µM); in test [3] it was 6.25 µg/mL (≈ 17.7 µM).
As for `Cc1ccc(Cc2cccc(Cn3nnc(-c4cccnc4N)n3)c2)s1` [Example 52, 3-(2-(3-(5-Methyl-thiophen-2-ylmethyl)-benzyl)-2H-tetrazol-5-yl)-pyridin-2-ylamine], the MIC turned out to be 3.13 µg/mL (≈ 8.64 µM) in test [1] and 1.56 µg/mL (≈ 4.3 µM) in test [3].
As for `Cc1ccc(Cc2ccc(Cn3nnc(-c4cccnc4N)n3)cc2)o1` [Example 53, 3-(2-(4-(5-Methyl-furan-2-ylmethyl)-benzyl)-2H-tetrazol-5-yl)-pyridin-2-ylamine], the minimal inhibitory concentration (MIC) amounted to 0.78 µg/mL (≈ 2.25 µM) in test [1] and 0.39 µg/mL (≈ 1.13 µM) in test [3]. Moreover, the “Mean Survival Day (MSD)” value in test [2] (Dose 2.5 mg/kg) was determined as 7.6 days; in test [2] (Dose 10 mg/kg), 13.8 days.
As to `Nc1ncccc1-c1nnn(Cc2ccn(Cc3ccccc3)c2)n1` [Example 55, 3-(2-(1-Benzyl-1H-pyrrol-3-ylmethyl)-2H-tetrazol-5-yl)-pyridin-2-ylamine], the figures for the MIC in test [1] and in test [3] were 0.78 µg/mL (≈ 2.35 µM) and 0.1 µg/mL (≈ 0.302 µM), respectively.
